Laboratory results taken from patent US9738634B2, “Heterocyclic amide compound and herbicide” (SYNGENTA PARTICIPATIONS AG, priority 2013, dated 2017).

Columns and labels:
Assay type in all cases: in vivo
barnyard grass [1] = assay: Test Example 1: weedkilling efficacy, preemergent weed treatment in the submerged state; A: barnyard grass; details: treatment dosage 252 g/ha
Summary of the method: (§1)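 Pre-emergence application onto floodwater (4 cm, alluvial soil) on the day of sowing, dose expressed as g/ha from diluted emulsion formulation. Weeds sown with 2.5-leaf transplanted rice as crop; plants held at 25–30 °C in greenhouse and scored against assessment criteria after 3 weeks.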

bulrush [2] = assay: Test Example 1: weedkilling efficacy, preemergent weed treatment in the submerged state; B: bulrush; details: treatment dosage 252 g/ha
Summary of the method: as §1

oval-leafed pondweed [3] = assay: Test Example 1: weedkilling efficacy, preemergent weed treatment in the submerged state; C: oval-leafed pondweed; details: treatment dosage 252 g/ha
Summary of the method: as §1

transplanted rice = assay: Test Example 1: preemergent weed treatment in the submerged state, effect on crop; a: transplanted rice; details: treatment dosage 252 g/ha
Summary of the method: as §1

barnyard grass [4] = assay: Test Example 2: weedkilling efficacy, growth period weed treatment in the submerged state; A: barnyard grass; details: treatment dosage 252 g/ha
Summary of the method: (§2)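 Weeds treated at the 1-2 leaf stage by application of diluted emulsion onto floodwater (4 cm depth, alluvial soil) at specified g/ha. Grown in greenhouse at 25 to 30° C; herbicidal effect rated three weeks after treatment.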

bulrush [5] = assay: Test Example 2: weedkilling efficacy, growth period weed treatment in the submerged state; B: bulrush; details: treatment dosage 252 g/ha
Summary of the method: as §2

oval-leafed pondweed [6] = assay: Test Example 2: weedkilling efficacy, growth period weed treatment in the submerged state; C: oval-leafed pondweed; details: treatment dosage 252 g/ha
Summary of the method: as §2

crabgrass [7] = assay: Test Example 3: weedkilling efficacy through soil treatment; D: crabgrass; details: treatment dosage 315 g/ha
Summary of the method: (§3)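 Crop and weed responses were judged three weeks after a uniform surface spray of the water-diluted emulsion at the given g/ha rate. Seeds sat beneath about 1.5 cm of sterilized diluvial soil, and boxes stood in a greenhouse at 25 to 30° C.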

green foxtail [8] = assay: Test Example 3: weedkilling efficacy through soil treatment; E: green foxtail; details: treatment dosage 315 g/ha
Summary of the method: as §3

black-grass [9] = assay: Test Example 3: weedkilling efficacy through soil treatment; H: black-grass; details: treatment dosage 315 g/ha
Summary of the method: as §3

Italian ryegrass [10] = assay: Test Example 3: weedkilling efficacy through soil treatment; I: Italian ryegrass; details: treatment dosage 315 g/ha
Summary of the method: as §3

Indian mallow [11] = assay: Test Example 3: weedkilling efficacy through soil treatment; K: Indian mallow; details: treatment dosage 315 g/ha
Summary of the method: as §3

redroot pigweed [12] = assay: Test Example 3: weedkilling efficacy through soil treatment; L: redroot pigweed; details: treatment dosage 315 g/ha
Summary of the method: as §3

fig-leafed goosefoot [13] = assay: Test Example 3: weedkilling efficacy through soil treatment; M: fig-leafed goosefoot; details: treatment dosage 315 g/ha
Summary of the method: as §3

chickweed [14] = assay: Test Example 3: weedkilling efficacy through soil treatment; N: chickweed; details: treatment dosage 315 g/ha
Summary of the method: as §3

birds-eye speedwell [15] = assay: Test Example 3: weedkilling efficacy through soil treatment; p: birds-eye speedwell; details: treatment dosage 315 g/ha
Summary of the method: as §3

directly sown rice [16] = assay: Test Example 3: soil treatment, effect on crop; b: directly sown rice; details: treatment dosage 315 g/ha
Summary of the method: as §3

corn [17] = assay: Test Example 3: soil treatment, effect on crop; c: corn; details: treatment dosage 315 g/ha
Summary of the method: as §3

soybean [18] = assay: Test Example 3: soil treatment, effect on crop; d: soybean; details: treatment dosage 315 g/ha
Summary of the method: as §3

wheat [19] = assay: Test Example 3: soil treatment, effect on crop; e: wheat; details: treatment dosage 315 g/ha
Summary of the method: as §3

beet [20] = assay: Test Example 3: soil treatment, effect on crop; f: beet; details: treatment dosage 315 g/ha
Summary of the method: as §3

crabgrass [21] = assay: Test Example 4: weedkilling efficacy by foliar treatment; D: crabgrass; details: treatment dosage 315 g/ha
Experimental: (§4) Testing of Weedkilling Efficacy by Foliar Treatment
(§5) Sterilized diluvial soil was introduced into 21 cm long, 13 cm wide, 7 cm deep plastic boxes, and seeds of crabgrass, green foxtail, barnyard grass, wild oat, black-grass, Italian ryegrass, common wind-grass, Indian mallow, redroot pigweed, fig-leafed goosefoot, chickweed, catchweed, birds-eye speedwell, corn, soybean, rice, wheat, beet and rapeseed were each spot-sown, and covered with about 1.5 cm of soil, then the plants were grown in a greenhouse at 25 to 30° C.
(§6) After they had grown for 14 days, emulsions of compounds of the present invention prepared according to compounding example 2 were diluted with water to give the specified dosages, and applied uniformly onto the stem and leaf parts with a small sprayer. 3 weeks after the pesticide treatment the effect on each type of plant was investigated on the basis of the assessment criteria of test example 1.
(§7) A: barnyard grass, B: bulrush, C: oval-leafed pondweed, D: crabgrass, E: green foxtail, F: barnyard grass, G: wild oat, H: black-grass, I: Italian ryegrass, J: common wind-grass, K: Indian mallow, L: redroot pigweed, M: fig-leafed goosefoot, N: chickweed, O: catchweed, p: birds-eye speedwell, a: transplanted rice, b: directly sown rice, c: corn, d: soybean, e: wheat, f: beet, g: rapeseed
(§8) Further, pesticide dosage (g/ha) indicates the concentration regulated such that treatment was with only the stated number of grams (g), when calculated per hectare (ha).

green foxtail [22] = assay: Test Example 4: weedkilling efficacy by foliar treatment; E: green foxtail; details: treatment dosage 315 g/ha
Experimental: as §4, §5, §6, §7, §8

black-grass [23] = assay: Test Example 4: weedkilling efficacy by foliar treatment; H: black-grass; details: treatment dosage 315 g/ha
Experimental: as §4, §5, §6, §7, §8

Italian ryegrass [24] = assay: Test Example 4: weedkilling efficacy by foliar treatment; I: Italian ryegrass; details: treatment dosage 315 g/ha
Experimental: as §4, §5, §6, §7, §8

Indian mallow [25] = assay: Test Example 4: weedkilling efficacy by foliar treatment; K: Indian mallow; details: treatment dosage 315 g/ha
Experimental: as §4, §5, §6, §7, §8

redroot pigweed [26] = assay: Test Example 4: weedkilling efficacy by foliar treatment; L: redroot pigweed; details: treatment dosage 315 g/ha
Experimental: as §4, §5, §6, §7, §8

fig-leafed goosefoot [27] = assay: Test Example 4: weedkilling efficacy by foliar treatment; M: fig-leafed goosefoot; details: treatment dosage 315 g/ha
Experimental: as §4, §5, §6, §7, §8

chickweed [28] = assay: Test Example 4: weedkilling efficacy by foliar treatment; N: chickweed; details: treatment dosage 315 g/ha
Experimental: as §4, §5, §6, §7, §8

catchweed = assay: Test Example 4: weedkilling efficacy by foliar treatment; O: catchweed; details: treatment dosage 315 g/ha
Experimental: as §4, §5, §6, §7, §8

birds-eye speedwell [29] = assay: Test Example 4: weedkilling efficacy by foliar treatment; p: birds-eye speedwell; details: treatment dosage 315 g/ha
Experimental: as §4, §5, §6, §7, §8

directly sown rice [30] = assay: Test Example 4: foliar treatment, effect on crop; b: directly sown rice; details: treatment dosage 315 g/ha
Experimental: as §4, §5, §6, §7, §8

corn [31] = assay: Test Example 4: foliar treatment, effect on crop; c: corn; details: treatment dosage 315 g/ha
Experimental: as §4, §5, §6, §7, §8

soybean [32] = assay: Test Example 4: foliar treatment, effect on crop; d: soybean; details: treatment dosage 315 g/ha
Experimental: as §4, §5, §6, §7, §8

wheat [33] = assay: Test Example 4: foliar treatment, effect on crop; e: wheat; details: treatment dosage 315 g/ha
Experimental: as §4, §5, §6, §7, §8

beet [34] = assay: Test Example 4: foliar treatment, effect on crop; f: beet; details: treatment dosage 315 g/ha
Experimental: as §4, §5, §6, §7, §8

CC1=C(c2ccc(Cl)s2)C(=O)N(C(C)(C)C(=O)Nc2cccc(Cl)n2)CO1 [B-2-02]
A (barnyard grass) weedkilling efficacy grade (barnyard grass [1]): 5 (weed kill ratio 90% or more, (practically complete withering)) | B (bulrush) weedkilling efficacy grade (bulrush [2]): 5 (weed kill ratio 90% or more, (practically complete withering)) | C (oval-leafed pondweed) weedkilling efficacy grade (oval-leafed pondweed [3]): 5 (weed kill ratio 90% or more, (practically complete withering)) | a (transplanted rice) effect on crop grade (transplanted rice): 0 (weed kill ratio 5% or less (practically no effect)) | A (barnyard grass) weedkilling efficacy grade (barnyard grass [4]): 5 (weed kill ratio 90% or more, (practically complete withering)) | B (bulrush) weedkilling efficacy grade (bulrush [5]): 5 (weed kill ratio 90% or more, (practically complete withering)) | C (oval-leafed pondweed) weedkilling efficacy grade (oval-leafed pondweed [6]): 5 (weed kill ratio 90% or more, (practically complete withering)) | D (crabgrass) weedkilling efficacy grade (crabgrass [7]): 5 (weed kill ratio 90% or more, (practically complete withering)) | E (green foxtail) weedkilling efficacy grade (green foxtail [8]): 3 (weed kill ratio 40% or more, less than 70%) | H (black-grass) weedkilling efficacy grade (black-grass [9]): 5 (weed kill ratio 90% or more, (practically complete withering)) | I (Italian ryegrass) weedkilling efficacy grade (Italian ryegrass [10]): 5 (weed kill ratio 90% or more, (practically complete withering)) | K (Indian mallow) weedkilling efficacy grade (Indian mallow [11]): 3 (weed kill ratio 40% or more, less than 70%) | L (redroot pigweed) weedkilling efficacy grade (redroot pigweed [12]): 3 (weed kill ratio 40% or more, less than 70%) | M (fig-leafed goosefoot) weedkilling efficacy grade (fig-leafed goosefoot [13]): 0 (weed kill ratio 5% or less (practically no effect)) | N (chickweed) weedkilling efficacy grade (chickweed [14]): 3 (weed kill ratio 40% or more, less than 70%) | P (birds-eye speedwell) weedkilling efficacy grade (birds-eye speedwell [15]): 2 (weed kill ratio 20% or more, less than 40%) | b (directly sown rice) effect on crop grade (directly sown rice [16]): 2 (weed kill ratio 20% or more, less than 40%) | c (corn) effect on crop grade (corn [17]): 0 (weed kill ratio 5% or less (practically no effect)) | d (soybean) effect on crop grade (soybean [18]): 0 (weed kill ratio 5% or less (practically no effect)) | e (wheat) effect on crop grade (wheat [19]): 3 (weed kill ratio 40% or more, less than 70%) | f (beet) effect on crop grade (beet [20]): 0 (weed kill ratio 5% or less (practically no effect)) | D (crabgrass) weedkilling efficacy grade (crabgrass [21]): 4 (weed kill ratio 70% or more, less than 90%) | E (green foxtail) weedkilling efficacy grade (green foxtail [22]): 3 (weed kill ratio 40% or more, less than 70%) | H (black-grass) weedkilling efficacy grade (black-grass [23]): 4 (weed kill ratio 70% or more, less than 90%) | I (Italian ryegrass) weedkilling efficacy grade (Italian ryegrass [24]): 3 (weed kill ratio 40% or more, less than 70%) | K (Indian mallow) weedkilling efficacy grade (Indian mallow [25]): 0 (weed kill ratio 5% or less (practically no effect)) | L (redroot pigweed) weedkilling efficacy grade (redroot pigweed [26]): 4 (weed kill ratio 70% or more, less than 90%) | M (fig-leafed goosefoot) weedkilling efficacy grade (fig-leafed goosefoot [27]): 3 (weed kill ratio 40% or more, less than 70%) | N (chickweed) weedkilling efficacy grade (chickweed [28]): 0 (weed kill ratio 5% or less (practically no effect)) | O (catchweed) weedkilling efficacy grade (catchweed): 0 (weed kill ratio 5% or less (practically no effect)) | P (birds-eye speedwell) weedkilling efficacy grade (birds-eye speedwell [29]): 1 (weed kill ratio 5% or more, less than 20%) | b (directly sown rice) effect on crop grade (directly sown rice [30]): 4 (weed kill ratio 70% or more, less than 90%) | c (corn) effect on crop grade (corn [31]): 0 (weed kill ratio 5% or less (practically no effect)) | d (soybean) effect on crop grade (soybean [32]): 0 (weed kill ratio 5% or less (practically no effect)) | e (wheat) effect on crop grade (wheat [33]): 0 (weed kill ratio 5% or less (practically no effect)) | f (beet) effect on crop grade (beet [34]): 3 (weed kill ratio 40% or more, less than 70%)
